Results reported in patent publication US20090123447A1, “COMPOSITIONS AND METHODS TO INHIBIT RNA VIRAL REPRODUCTION” (priority 2007, published 2009).

Assays:
JFH1-transfected cells = assay: ATP concentration as cytotoxicity measure in JFH1-transfected cells
Experimental: Determination of ATP concentrations—ATP level was measured, using Somatic Cell ATP Assay kit from Sigma-Aldrich, as previously described (68). Protein level was determined with bicinchoninic acid kit (Pierce Biotechnology, Inc., Rockford, Ill.).
ATP concentration was measured to determine if the treatments were cytotoxic to the cells.

GSH [1] = assay: Intracellular glutathione (GSH) in SgPC2 cells, GSH recycling assay; type: cell-based, human; settings: 20-40 μM BSO, 24 h
Experimental: Intracellular GSH concentration was determined using a GSH recycling assay [35] and expressed as nmol/mg protein. ATP level was measured using the Somatic Cell ATP assay kit from Sigma-Aldrich, as previously described [32]. Protein level was determined with a bicinchoninic acid kit (Pierce Biotechnology, Inc., Rockford, Ill., USA).

[2] = system: subgenomic HCV replicon of genotype 1b; assay: microbe, parasite or virus in culture; type: cell-based, hepatitis C virus; settings: SgPC2 cells, Northern blot
Experimental: Huh7 human hepatoma cells were cultured in Dulbecco's modified Eagle medium (DMEM; Invitrogen, Carlsbad, Calif., USA) supplemented with 10% fetal bovine serum (FBS; Invitrogen), 100 units/ml of penicillin, and 100 μg/ml of streptomycin in a 5% CO2 incubator. SgPC2 cells are G418-selected, pooled Huh7 cell clones that support the continuous replication of a subgenomic HCV replicon of genotype 1b and [29] (GenBank Accession No. AJ242652) that carries a S11791 adaptive mutation within the NS5A region. SgPC2 cells were maintained in the above medium supplemented with 0.5 mg/ml G418 (Invitrogen). G418 was removed at least 1 day before cell treatments.

[3] = system: intracellular calcium concentration ([Ca^2+]i); assay: [Ca^2+]i measurement with Indo-1 AM in SgPC2 cells; type: cell-based, human; settings: BSO-treated cells, after 24 h
Experimental: Briefly, on the day of the experiment, cells were washed in Krebs-Ringer phosphate buffer (KRPH; pH 7.4, containing 1.0 mM MgSO4, 1.3 mM CaCl2, 10 mM Hepes, 5 mM glucose, 125 mM NaCl, 5 mM KCl, and 10 mM sodium phosphate) and subsequently loaded with 10-20 μM Indo-1 AM (70 μl/coverslip; Molecular Probes, Inc., Eugene, Oreg., USA) containing 10 μM probenecid (Molecular Probes) for 30 min at 37° C. The attached cells were washed and bathed in KRPH/probenecid at 4° C. or room temperature until further analysis. Then, coverslips were individually submerged into KRPH and preequilibrated inside the […] fluorimeter (Hitachi) in darkness for 3 min, and [Ca^2+]i was monitored continuously at 37° C., with excitation at […] and emission at 400 and 450 nm. H2O2 and other agents were injected at different time points, as indicated under Results. [Ca^2+]i was calculated as described. Rmax was determined by adding 8-16 μM digitonin and Rmin with 10 mM ethylene glycol-bis(β-aminoethyl)-N,N,N'-tetraacetic acid (EGTA). […] The baseline, which represented unstimulated cells scanned over time, was plotted along with other measurements or subtracted from the other plots. Cells were serum-depleted, 1 day before the experiment, by incubating them overnight in DMEM plus 0.5% FBS. […] Then, CaCl2 was added before determining the Rmax for each run.

GSH [4] = assay: Intracellular GSH content in Huh7 cells (unpublished observation); type: cell-based, human; settings: twenty to 100 μM BSO
JFH1 HCV (genotype 2a) = type: cell-based, hepatitis C virus; settings: JFH1-transfected cells, 20 uM
Experimental: (§1) For viral RNA transfection, JFH1, JFH1/GND, and pSGR-JFH1-Luc were linearized with XbaI and used to synthesize the corresponding positive-sense stranded HCV RNA, as previously described (68). Then, 5×10^6 Huh7 cells were rinsed with Opti-Mem (Invitrogen), mixed briefly with 10-20 μg of the in vitro transcribed RNA in 0.4 ml of Opti-Mem, and then electroporated at 260 volts and 950 μF. […] Medium was changed daily. For infection with HCV, medium collected from JFH1 RNA-transfected cells were cleared of cell debris, as described, and added to naïve Huh7 cells. Typically, 1:2 or 3:2 ratio of the virus-containing medium and fresh cell culture medium were used.
JFH1/GND was used as the negative control. When L-buthionine S,R-sulfoximine (BSO) was used, the cells were pretreated with BSO for 16-24 hrs prior to the initiation of treatments.
Intracellular JFH1 HCV RNA content was also analyzed by qRT-PCR (Taqman), using ABI7300 real time PCR system and one step RT-PCR kit from Applied Biosystems. The forward primer was 5′-[…]-3′ (nt. 146 to 164) and the reverse primer, 5′-[…]-3′ (nt. 277 to 295). The probe was 5′[…]3′ (nt. 168 to 188) and was fluorogenically labeled with FAM (5′) and TAMRA (3′) (Biosearch Technologies, Novato, Calif.). Briefly, the reactions were carried out at 48° C. for 30 min for reverse transcription, followed by denaturation at 95° C. for 10 min, and then 50 cycles of 15 sec denaturation at 95° C. plus 60 sec of annealing and extension at 60° C. All samples were analyzed in duplicates or triplicates. In vitro RNA transcripts were used to generate standard curve to determine RNA copy numbers. The level of 18S rRNA was also analyzed, using manufacturer-optimized protocol, as the control.
To analyze the amount of the extracellular HCV RNA, medium from the cells were cleared by low-speed centrifugation and then, treated with RNaseA at room temperature. Then, the RNA samples were extracted, using Trizol LS Reagent (Invitrogen), and analyzed for HCV RNA content by qRT-PCR.

[5] = system: SgJFH1-Luc RNA (subgenomic JFH1 replicon); assay: SgJFH1-Luc RNA replication in Huh7 cells, luciferase assay; type: cell-based, hepatitis C virus; settings: Huh7 cells transfected with SgJFH1-Luc RNA
Experimental: as §1
SgJFH1-Luc RNA replication was also monitored by firefly luciferase reporter assay, using a kit from Promega.
To investigate whether the HCV RNA replication is modulated by ROS, Huh7 cells were transfected with the SgJFH1-Luc RNA and treated with GO plus glucose.
After 24 and 48 hours, respectively, the cells were collected in PBS, centrifuged, lysed in the reporter lysis buffer (Promega), and analyzed for luciferase activity.

SMILES: CCCCS(=N)(=O)CCC(N)C(=O)O (stereo not shown) [BSO, 1-buthionine S,R-sulfoximine, reference compound]
- cytotoxicity (ATP concentration, cell survivability) (JFH1-transfected cells): did not cause any loss in cell survivability
- decrease of total intracellular GSH concentration (GSH [1]): about 75%
- effect on HCV RNA level / replication [2]: sufficient to decrease the HCV RNA level
- intracellular calcium concentration [3]: 60.6 ± 4.3 nM
- decrease of intracellular GSH content (GSH [4]): about 60%
- intracellular HCV RNA level (JFH1 HCV (genotype 2a)): significant suppression
- HCV RNA level by luciferase activity [5]: further suppressed HCV RNA
